According to article PMC7806782, “Tethering-induced destabilization and ATP-binding for tandem RRM domains of ALS-causing TDP-43 and hnRNPA1” (Scientific Reports, 2021):

Columns and labels:
Test in all cases: 1H-15N HSQC NMR titration, one-site fit of chemical shift differences
Assay type in all cases: binding
[1] = biological target: T1, isolated TDP-43 RRM2 (191–269) (Homo sapiens, UniProt Q13148)
T1 construct: gene TARDBP
Text: 1H-15N HSQC NMR titration, one-site fit of chemical shift differences on isolated TDP-43 RRM2 (191–269) | isolated RRM2 is also able to bind ATP to induce large shifts

[2] = biological target: T2, tethered hnRNPA1 RRM1–RRM2 (5–184) (Homo sapiens, UniProt P09651)
T2 construct: ATP site in RRM2

[3] = biological target: T3, isolated hnRNPA1 RRM2 (94–184) (Homo sapiens, UniProt P09651)
T3 construct: printed as 90-residue
T3 sequence (P09651 94-184): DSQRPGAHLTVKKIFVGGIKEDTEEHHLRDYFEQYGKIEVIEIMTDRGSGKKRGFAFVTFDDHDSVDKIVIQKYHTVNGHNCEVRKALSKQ

T1 sequence (Q13148 191-269): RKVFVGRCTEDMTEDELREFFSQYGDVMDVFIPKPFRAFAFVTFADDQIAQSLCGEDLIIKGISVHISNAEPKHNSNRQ
T2 sequence (P09651 5-184): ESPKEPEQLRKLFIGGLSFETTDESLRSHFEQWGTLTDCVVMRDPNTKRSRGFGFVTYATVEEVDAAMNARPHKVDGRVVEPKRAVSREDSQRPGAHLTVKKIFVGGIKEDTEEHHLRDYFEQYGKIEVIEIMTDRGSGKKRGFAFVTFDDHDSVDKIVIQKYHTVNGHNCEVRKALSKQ

Kd [1]: 16.7 ± 0.9 mM
Kd [2]: 4.9 mM
Kd [3]: 7.7 mM
Compound: Nc1ncnc2c1ncn2[C@@H]1O[C@H](COP(=O)(O)OP(=O)(O)OP(=O)(O)O)[C@@H](O)[C@H]1O [ATP]
